Results: ChEMBL document CHEMBL4699470, “N-Substituted piperazine derivatives as potential multitarget agents acting on histamine H receptor and cancer resistance proteins” (Bioorg Med Chem Lett, 2020)

Columns and labels:
[1] = biological target: T1, ATP-dependent translocase ABCB1 (Homo sapiens, UniProt P08183); test: Inhibition of human ABCB1 in expressed in multidrug resistant mouse L5178Y cells assessed as fluorescence activity ratio at 2 uM by rhodamine 123 retention assay relative to parental L5178Y cells; assay type: cell-based
[2] = biological target: T1, ATP-dependent translocase ABCB1; test: Inhibition of human ABCB1 in expressed in multidrug resistant mouse L5178Y cells assessed as fluorescence activity ratio at 20 uM by rhodamine 123 retention assay relative to parental L5178Y cells; assay type: cell-based
[3] = biological target: T1, ATP-dependent translocase ABCB1; test: Inhibition of human ABCB1 in expressed in multidrug resistant mouse L5178Y cells assessed as fluorescence activity ratio by rhodamine 123 retention assay relative to verapamil; assay type: cell-based
L5178Y [4] = test: Cytotoxicity against mouse L5178Y cells assessed as reduction in cell viability by MTT assay; assay type: functional, cell-based
L5178Y [5] = test: Cytotoxicity against multidrug resistance mouse L5178Y cells expressing human MDR1 assessed as reduction in cell viability by MTT assay; assay type: functional, cell-based
L5178Y [6] = test: Antiproliferative activity against mouse L5178Y cells by MTT assay; assay type: functional, cell-based
L5178Y [7] = test: Antiproliferative activity against multidrug resistance mouse L5178Y cells expressing human MDR1 by MTT assay; assay type: functional, cell-based
Homo sapiens = organism: Homo sapiens; test: Substrate activity at Pgp (unknown origin) assessed as increase in ATP basal consumption at 100 uM by Pgp-Glo luminescence assay relative to control

T1 sequence (P08183 whole entry): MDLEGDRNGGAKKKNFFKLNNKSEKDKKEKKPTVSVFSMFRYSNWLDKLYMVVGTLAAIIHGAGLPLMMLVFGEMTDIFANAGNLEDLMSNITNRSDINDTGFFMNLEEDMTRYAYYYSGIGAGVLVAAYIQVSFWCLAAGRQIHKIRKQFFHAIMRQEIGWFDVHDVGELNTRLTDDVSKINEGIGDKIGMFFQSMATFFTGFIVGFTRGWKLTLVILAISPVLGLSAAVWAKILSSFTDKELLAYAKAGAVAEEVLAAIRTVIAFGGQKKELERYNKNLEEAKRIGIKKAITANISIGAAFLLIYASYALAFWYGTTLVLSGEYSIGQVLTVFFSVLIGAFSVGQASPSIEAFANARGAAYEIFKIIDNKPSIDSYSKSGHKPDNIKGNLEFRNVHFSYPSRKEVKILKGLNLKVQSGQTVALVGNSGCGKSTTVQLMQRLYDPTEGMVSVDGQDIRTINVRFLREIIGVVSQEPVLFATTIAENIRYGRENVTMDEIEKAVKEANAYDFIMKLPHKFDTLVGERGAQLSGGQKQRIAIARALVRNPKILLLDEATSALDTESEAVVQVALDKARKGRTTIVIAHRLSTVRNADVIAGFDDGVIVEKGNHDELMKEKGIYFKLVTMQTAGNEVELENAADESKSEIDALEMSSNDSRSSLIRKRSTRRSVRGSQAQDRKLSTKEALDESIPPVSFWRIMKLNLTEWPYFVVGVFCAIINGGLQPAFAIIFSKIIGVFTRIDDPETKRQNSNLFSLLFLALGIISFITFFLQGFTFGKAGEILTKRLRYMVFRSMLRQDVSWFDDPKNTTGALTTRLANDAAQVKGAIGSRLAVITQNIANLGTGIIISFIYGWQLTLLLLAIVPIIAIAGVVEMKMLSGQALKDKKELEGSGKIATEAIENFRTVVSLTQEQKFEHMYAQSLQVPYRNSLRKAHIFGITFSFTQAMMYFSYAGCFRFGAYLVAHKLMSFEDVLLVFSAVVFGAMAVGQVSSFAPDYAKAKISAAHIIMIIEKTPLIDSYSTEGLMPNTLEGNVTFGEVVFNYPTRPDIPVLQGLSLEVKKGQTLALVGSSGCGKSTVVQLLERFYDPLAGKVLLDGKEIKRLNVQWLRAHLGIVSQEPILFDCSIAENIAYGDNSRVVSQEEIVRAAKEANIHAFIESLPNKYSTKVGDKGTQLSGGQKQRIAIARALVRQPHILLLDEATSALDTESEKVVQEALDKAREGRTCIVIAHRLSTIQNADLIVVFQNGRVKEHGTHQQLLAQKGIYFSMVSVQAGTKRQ

SMILES: CC(=O)c1ccc(OCCCCN2CCN(c3ccccn3)CC2)cc1
- Ratio [1]: 0.98
- Ratio [2]: 8.71
- Ratio [3]: 1.6
- IC50 (L5178Y [4]): 63.7 µM
- IC50 (L5178Y [5]): 46.2 µM
- IC50 (L5178Y [6]): 24.1 µM
- IC50 (L5178Y [7]): 25.5 µM

SMILES: CC(C)(C)c1ccc(OCCCCN2CCN(c3cnccn3)CC2)cc1
- Ratio [1]: 1.36
- Ratio [2]: 17.85
- Ratio [3]: 1.6
- IC50 (L5178Y [4]): 18.3 µM
- IC50 (L5178Y [5]): 27.6 µM
- IC50 (L5178Y [6]): 9.86 µM
- IC50 (L5178Y [7]): 9.68 µM

SMILES: CC(=O)c1ccc(OCCCN2CCN(c3ncccn3)CC2)cc1
- Ratio [1]: 1.06
- Ratio [2]: 1.03
- IC50 (L5178Y [4]): > 100 µM
- IC50 (L5178Y [6]): 53.2 µM
- IC50 (L5178Y [7]): 77.5 µM

SMILES: CC(=O)c1ccc(OCCCN2CCN(c3ccccn3)CC2)cc1
- Ratio [1]: 0.92
- Ratio [2]: 0.84
- IC50 (L5178Y [5]): 49.7 µM
- IC50 (L5178Y [6]): 27.1 µM
- IC50 (L5178Y [7]): 32.8 µM

SMILES: CCC(C)(C)c1ccc(OCCCCN2CCN(c3cccnc3)CC2)cc1
- Ratio [1]: 5.95
- Ratio [2]: 19.26
- Ratio [3]: 1.6
- IC50 (L5178Y [4]): 9.23 µM
- IC50 (L5178Y [5]): 7.59 µM
- IC50 (L5178Y [6]): 3.23 µM
- IC50 (L5178Y [7]): 3.68 µM
- Activity (Homo sapiens): > 100%

SMILES: CCC(=O)c1ccc(OCCCN2CCN(c3cnccn3)CC2)cc1
- Ratio [1]: 0.83
- Ratio [2]: 0.82
- IC50 (L5178Y [4]): 47.5 µM
- IC50 (L5178Y [5]): 60.3 µM
- IC50 (L5178Y [6]): 24.3 µM
- IC50 (L5178Y [7]): 30 µM

SMILES: CC(C)(C)c1ccc(OCCCCN2CCN(c3cccnc3)CC2)cc1
- Ratio [1]: 2.81
- Ratio [2]: 25.33
- Ratio [3]: 1.6
- IC50 (L5178Y [4]): 11.7 µM
- IC50 (L5178Y [5]): 10.5 µM
- IC50 (L5178Y [6]): 5.48 µM
- IC50 (L5178Y [7]): 5.99 µM
- Activity (Homo sapiens): > 100%

SMILES: CCC(C)(C)c1ccc(OCCCCN2CCN(c3ncccn3)CC2)cc1
- Ratio [1]: 2.17
- Ratio [2]: 32.32
- Ratio [3]: 1.6
- IC50 (L5178Y [4]): 46.4 µM
- IC50 (L5178Y [5]): 32.1 µM
- IC50 (L5178Y [6]): 17.7 µM
- IC50 (L5178Y [7]): 18.9 µM

SMILES: CCC(C)(C)c1ccc(OCCCCN2CCN(c3cnccn3)CC2)cc1
- Ratio [1]: 1.85
- Ratio [2]: 73.64
- Ratio [3]: 1.6
- IC50 (L5178Y [4]): 12.6 µM
- IC50 (L5178Y [5]): 12.8 µM
- IC50 (L5178Y [6]): 9.56 µM
- IC50 (L5178Y [7]): 9.49 µM
- Activity (Homo sapiens): > 100%

SMILES: CC(C)(C)c1ccc(OCCCN2CCN(c3ncccn3)CC2)cc1
- Ratio [1]: 0.93
- Ratio [2]: 1.02
- IC50 (L5178Y [4]): 40.4 µM
- IC50 (L5178Y [5]): 49.4 µM
- IC50 (L5178Y [6]): 25.6 µM
- IC50 (L5178Y [7]): 20.7 µM

SMILES: CC(C)(C)c1ccc(OCCCCN2CCN(c3ccccn3)CC2)cc1
- Ratio [1]: 1.74
- Ratio [2]: 38.41
- Ratio [3]: 1.6
- IC50 (L5178Y [4]): 15.1 µM
- IC50 (L5178Y [5]): 16.7 µM
- IC50 (L5178Y [6]): 11.9 µM
- IC50 (L5178Y [7]): 16.4 µM
- Activity (Homo sapiens): > 100%

SMILES: CCC(=O)c1ccc(OCCCN2CCN(c3ncccn3)CC2)cc1
- Ratio [1]: 0.92
- Ratio [2]: 1.02
- IC50 (L5178Y [4]): > 100 µM
- IC50 (L5178Y [5]): 54.6 µM
- IC50 (L5178Y [6]): 36.9 µM
- IC50 (L5178Y [7]): 41.3 µM

SMILES: CC(=O)c1ccc(OCCCCN2CCN(c3cccnc3)CC2)cc1
- Ratio [1]: 0.84
- Ratio [2]: 0.99
- IC50 (L5178Y [4]): 69 µM
- IC50 (L5178Y [5]): 44 µM
- IC50 (L5178Y [6]): 24.2 µM
- IC50 (L5178Y [7]): 29.8 µM

SMILES: CC(=O)c1ccc(OCCCN2CCN(c3ccncc3)CC2)cc1
- Ratio [1]: 1.29
- Ratio [2]: 1.61
- IC50 (L5178Y [4]): > 100 µM
- IC50 (L5178Y [6]): 42.3 µM
- IC50 (L5178Y [7]): 43.8 µM

SMILES: CC(=O)c1ccc(OCCCCN2CCN(c3ncccn3)CC2)cc1
- Ratio [1]: 0.86
- Ratio [2]: 1.28
- IC50 (L5178Y [4]): > 100 µM
- IC50 (L5178Y [5]): 63.9 µM
- IC50 (L5178Y [6]): 31.6 µM
- IC50 (L5178Y [7]): 38.9 µM

SMILES: CC(C)(C)c1ccc(OCCCCN2CCN(c3ncccn3)CC2)cc1
- Ratio [1]: 2.7
- Ratio [2]: 34.05
- Ratio [3]: 1.6
- IC50 (L5178Y [4]): 20.8 µM
- IC50 (L5178Y [5]): 17.6 µM
- IC50 (L5178Y [6]): 11.3 µM
- IC50 (L5178Y [7]): 9.88 µM

SMILES: CSc1ccc2c(c1)N(CCC1CCCCN1C)c1ccccc1S2 (configuration not stated) [THIORIDAZINE]
- IC50 (L5178Y [4]): 12.7 µM
- IC50 (L5178Y [5]): 7.43 µM
